Experiments:
human JAK3 JH1-JH2 = target: T1, human JAK3 JH1-JH2 (Homo sapiens, UniProt P52333); test: Native PAGE antibody competition, JAK3 JH1-JH2; assay type: binding; conditions: antibody against aa 716-967
T1 construct: incubated with human JAK2 JH1-JH2 and JAK3 JH1-JH2 at 37° C. for 3 h; purchased Life Technologies
T1 sequence (P52333 521-1124): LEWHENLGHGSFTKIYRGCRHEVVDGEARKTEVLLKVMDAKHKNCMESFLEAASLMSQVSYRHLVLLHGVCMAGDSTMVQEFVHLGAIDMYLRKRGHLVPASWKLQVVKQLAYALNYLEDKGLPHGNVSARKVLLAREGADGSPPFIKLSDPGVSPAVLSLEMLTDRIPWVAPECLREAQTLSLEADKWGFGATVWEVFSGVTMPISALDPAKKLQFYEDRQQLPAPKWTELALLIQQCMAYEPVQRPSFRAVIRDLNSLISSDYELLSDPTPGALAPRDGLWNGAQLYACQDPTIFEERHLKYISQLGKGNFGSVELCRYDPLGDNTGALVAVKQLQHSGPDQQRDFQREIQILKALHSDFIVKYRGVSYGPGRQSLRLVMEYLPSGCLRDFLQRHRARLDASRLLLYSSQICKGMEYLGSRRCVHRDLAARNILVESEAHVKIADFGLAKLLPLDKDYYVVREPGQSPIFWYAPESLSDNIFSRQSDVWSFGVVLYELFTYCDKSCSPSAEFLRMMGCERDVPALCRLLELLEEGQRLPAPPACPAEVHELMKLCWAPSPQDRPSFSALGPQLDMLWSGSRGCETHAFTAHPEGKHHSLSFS
Procedure: Samples were loaded onto native PAGE gels for electrophoresis, and the levels of free JH1-JH2 domain were measured by immunoblotting.

Jurkat cells = test: Jurkat cell proliferation by MTS assay and caspase immunoblot; assay type: cell-based, human
C57/BL6 splenocytes = test: Splenocyte proliferation by MTS assay; assay type: cell-based, mouse
Procedure: (§1) FIG. 1. […] After the incubation, cell lysates were assessed by immunoblot. […] In the same condition, cell proliferation was evaluated at 24, 48 and 72 h by MTS assay (lower). […] Data are expressed as the mean±SEM (n=4). **P, 0.01; ***P, 0.001 vs. stimulators-treated groups. Similar results were obtained in at least three independent experiments.
Primary mouse splenocytes were cultured in 96-well plates at a density of 4×10^5 cells/well in 10% FBS RPMI 1640 medium and activated with three different stimulators (Con A: 5 μg/mL; PHA: 2.5 μg/mL; Anti-CD3/CD28: 10/1 μg/mL) at 37° C. in 5% CO2/air. […] The cell proliferation was evaluated by MTS assay with a CellTiter kit (Promega, Madison, Wis.).

[1] = tested on: IFN-γ secretion of primary mouse splenocytes; test: IFN-γ secretion analysis by ELISA in splenocytes; assay type: cell-based; conditions: 24 h, concentration-dependent
Procedure: as §1
Primary mouse splenocytes were plated at 1×10^5 cells/well with 10% FBS RPMI medium in 96-well plates. Four different experimental conditions were tested. […] All experiments were conducted at 37° C. After a total 24 h of incubation, supernatant IFN-γ concentrations were measured by ELISA kit following the manufactures instructions.

human JAK2 JH1-JH2 = test: Native PAGE antibody competition, JAK2 JH1-JH2; assay type: binding; conditions: antibody against JAK2 aa 745-955
pSTAT1 and IRF-1 = test: Immunoblot of IFN-γ activated pSTAT1 and IRF-1 in Jurkat, THP-1, HMEC-1 and Chang liver cells; assay type: cell-based, human; conditions: 2 h and 8 h, ZAA pre-treatment
Procedure: FIG. 7. IFN-γ-activated STAT1 and induced IRF-1 protein expression in Jurkat, THP-1, Chang liver and HMEC-1 cells. […] After various time periods, cells were harvested, and total protein extracts were prepared for imunoblot analysis using the indicated antibodies. Similar results were obtained in at least three independent experiments.
(§2) Cell lysates were analysed by immunoblotting with primary antibodies against pSTAT1, pSTAT3, IRF-1 and β-actin, followed by the appropriate HRP-linked secondary antibodies. Immunoreactive protein bands were detected using an enhanced chemiluminescence (ECL) kit (Pierce Biotechnology, Rockford, Ill.).

IRF-1 in Jurkat cells = test: IRF-1 expression by immunoblot in Jurkat cells; assay type: cell-based, human; conditions: 20 μM, vs vehicle-treated cells
Procedure: as §1
The increase in cleaved pro-caspase-3 and pro-caspase-8 was also observed at the end of the 24 h ZAA-treatment. […] In other words, ZAA was safe in normal cells, but not in rapidly proliferating cells.

[2] = tested on: JAK2, STAT3, STAT5 and LMO2 in HepG2 cells; test: Immunoblot of JAK2/STAT3/STAT5/LMO2 in HepG2 cells; assay type: cell-based, human; conditions: 20 μM, 48 h
Procedure: (§3) FIG. 3. […] Total cell lysates were examined for the indicated proteins by immunoblotting. (B) Jurkat cells were transfected with p-GAS-Luc plasmids. […] Total cell lysates were harvested, and their luciferase activities were determined and normalised to the total protein. […] Total mRNA was prepared, and the mRNA levels of IRF-1 and SOCS-1 were detected by RT-PCR. GAPDH was used as the reference band. […] Total cell lysates were examined for the indicated proteins by immunoblotting. β-actin was used as internal control. […] Total cell lysates were examined for the indicated proteins by immunoblotting. All data are one of three independent experiments with similar results.
(§4) As JAK2/STAT3 signaling has a role in human hepatoma HepG2 cell proliferation, JAK2 activation promotes recruitment to the receptor complex of STAT3 and STAT5 [32], and LMO2 expression.

[3] = tested on: STAT1, STAT3 and IRF-1 in splenocytes; test: Immunoblot of IFN-γ/pSTAT1 and IL-6/pSTAT3 signaling in splenocytes; assay type: cell-based, mouse
Procedure: as §1, §2

[4] = tested on: Con A-induced liver injury; test: Con A-induced hepatitis in mice; assay type: in vivo, C57BL/6 mice
Procedure: FIG. 4. […] (A) Representative microphotographs showing liver and spleen histopathologic changes with hematoxylin-and-eosin-staining (original magnification ×200). (B) The necrosis was analysed with a four-point score: 0, no; 1, 1-20% necrosis; 2, 20-40% necrosis; 3, >40% necrosis. Infiltration of leukocytes was graded on a four-point severity scale: 0, none; 1, little; 2, moderate; 3, mass. (C) Serum ALT and AST activities were measured at 8 h after Con A injection. (D) Serum levels of IFN-γ, IL-6 and IL-4 were measured at 8 h after Con A injection by ELISA. (E) Proteins from liver and spleen tissues of vehicle, ZAA and dexamethasone-treated mice were extracted and subjected to immunoblot. Values are shown as mean±S.E.M. from individual mice (n=10-13 mice/group). ***P<0.001,**P<0.01, *P<0.05 as compared with vehicle-treated mice. Similar results were obtained in at least three independent experiments.
The positive control animals with Con A-induced hepatitis were given the same amount of solvent (0.2% cyclodextrin) i.p., without any drugs. Blood samples were collected from each group for plasma transaminase activities and cytokine expression level determination. Part of the liver and spleen biopsy samples were fixed in 10% formalin, embedded in paraffin for further hematoxylin-eosin staining and the rest of the tissue samples were frozen at −80° C. for further studies.
Liver injury was quantified by determination of alanine aminotransferase (ALT) and aspartate aminotransferase (AST) activities in serum, according to the Reitman-Frankel method.

JAK3 = test: Immunoblot of IL-2 induced JAK3/STAT5 phosphorylation in Jurkat and THP-1 cells; assay type: cell-based, human; conditions: ZAA 3 h, cytokine 30 min
Procedure: as §3
as §2, with “western blot” for “immunoblotting”, “against JAK2, pJAK2, JAK3, pJAK3,” for “against”, “pSTAT5” for “IRF-1”

[5] = tested on: interferon-gamma activated sequence (GAS); test: Reporter assay for GAS transactivation activity; assay type: cell-based, human; conditions: Jurkat cells, IFN-γ 20 ng/mL, luciferase reporter
Procedure: as §3
The serum-containing medium of logarithmic growth Jurkat cells was replaced with serum-free RPMI, and the cells were transfected with p-GAS-Luc (0.5 μg/mL) plasmids using the Neon Transfection System (Invitrogen). Four hours later, the serum-free medium was replaced with RPMI containing 10% FBS. […] Luciferase reporter activity was measured according to the manufacturer's recommendation.

JAK2 = test: Immunoblot of JAK2/STAT phosphorylation in Jurkat and THP-1 cells; assay type: cell-based, human; conditions: ZAA 3 h, cytokine 30 min
Procedure: as §3
as §2, with “western blot” for “immunoblotting”, “against JAK2, pJAK2, JAK3, pJAK3,” for “against”, “pSTAT5” for “IRF-1”

[6] = tested on: IRF-1 and SOCS-1 transcription; test: RT-PCR of IRF-1 and SOCS-1 mRNA; assay type: cell-based, human; conditions: Jurkat and THP-1 cells
Procedure: as §3
Total RNA was extracted using the Trizol reagent according to the manufacturer's instructions. IRF-1, SOCS-1 and glyceraldehyde 3-phosphate GAPDH mRNA expression levels were detected by RT-PCR.

[7] = tested on: P-388 murine leukaemia cells; conditions: cited from earlier work
STAT3 in RAW264.7 cells = test: Immunoblot of IL-6-induced pSTAT3 in RAW264.7 cells; assay type: cell-based
Procedure: (§5) FIG. 5. […] Cell proliferation was measured by MTS assay. ***P<0.001, **P<0.01, *P<0.05 when compared with the control group. […] Following incubation, proteins were extracted and assessed by immunoblot analysis. Similar results were obtained in at least three independent experiments.
as §2

[8] = tested on: BALB/c and C57/BL6 splenocytes; test: Mixed lymphocyte reaction assay; assay type: cell-based, mouse; conditions: 72 h, MTS
Procedure: as §5
The cell number of total lymphocytes was measured using the CellTiter kit.

JAK1 and TYK2 = test: Immunoblot of IFN-α/IFN-β-induced STAT1 and JAK1 phosphorylation in Jurkat cells; assay type: cell-based, human
Procedure: as §3, §4

[9] = 20 mg/kg i.p., 8 h after Con A injection

C=C(CC[C@@H](C)[C@H]1CC[C@H]2C3=C(C(=O)C[C@]12C)[C@@]1(C)CCC(=O)[C@@H](C)[C@@H]1CC3=O)C(C)C(=O)O (some centres unmarked) [ZAA, Zhankuic acid A]
anti-JAK3 antibody recognition of native JH1-JH2 domain (human JAK3 JH1-JH2): reduced | cleaved pro-caspase-3 and pro-caspase-8 (Jurkat cells; Jurkat, 24 h ZAA-treatment): increase | Jurkat cell proliferation (Jurkat cells; without or with Con A, MTS): remarkably inhibited | stimulator-activated T cell proliferation (C57/BL6 splenocytes; Con-A, PHA or anti-CD3/CD28-induced splenocytes, concentration-dependent): significantly inhibited | proliferation of splenocytes, ZAA alone (C57/BL6 splenocytes; no stimulator, up to 20 μM): did not affect | Con-A-induced IFN-γ secretion [1]: reduced | anti-JAK2 antibody recognition of native JH1-JH2 domain (human JAK2 JH1-JH2): reduced | IFN-γ activated pSTAT1 and IRF-1 (pSTAT1 and IRF-1): suppressed | IRF-1 expression (IRF-1 in Jurkat cells): suppressed | phosphorylation of JAK2, STAT3 and STAT5, and LMO2 expression [2]: effectively inhibit | IRF-1 (downstream of STAT) ([3]; IFN-γ, concentration-dependent): inhibitory effect | IL-6-induced Tyr705 phosphorylation of STAT3 ([3]; splenocytes): suppress | IFN-γ-induced Tyr701 phosphorylation of STAT1 ([3]; splenocytes and Jurkat cells, IFN-γ 30 min): completely inhibit | extent of liver damage (histopathology) ([4]; 20 mg/kg i.p. 1 h prior to Con A, 8 h): markedly reduce | pathologic grades: necrosis and infiltration of leukocytes ([4]; 20 mg/kg i.p. pre-treatment): significant preventative effects | hepatitis phenotype by ALT and AST serum levels ([4]; 20 mg/kg i.p., 8 h after Con A): almost completely recovered | reduction of serum level of IFN-γ [4, 9]: 37% | reduction of serum level of IL-4 [4, 9]: 38% | reduction of serum level of IL-6 [4, 9]: 66% | caspase 3 activity and IRF-1 expression in liver and spleen tissues ([4]; 20 mg/kg pre-treatment, immunoblot): significantly reduced | IL-2 induced JAK3/STAT5 phosphorylation (JAK3): potently inhibited | GAS-mediated transactivation [5]: inhibited | IFN-γ-induced JAK2/STAT1, IL-6 induced JAK2/STAT1 and JAK2/STAT3, GM-CSF induced JAK2/STAT5 phosphorylation (JAK2): potently inhibited | IFN-γ stimulated IRF-1 and SOCS-1 transcription [6]: significantly prevented | cytotoxic activity [7]: exhibited cytotoxic activity | IL-6-induced Tyr705 phosphorylation of STAT3 (STAT3 in RAW264.7 cells): suppress | cell proliferation in mixed lymphocytes reaction [8]: inhibitory effect | JAK1 phosphorylation (JAK1 and TYK2; 20 μM): not suppressed | IFN-α and IFN-β-induced STAT1 phosphorylation (JAK1 and TYK2; Jurkat cells, via JAK1 and TYK2): could not inhibit

— patent US20150306112A1 (National Cheng Kung University, priority 2014, published 2015)
